Results: PMC11809415 (The Journal of Cell Biology, 2025)
Entries after “also recorded” stand apart in the source; their conditions may differ.

How the values were obtained:
[1] = test system: actin (ADP-ribosylation by TcART, Photorhabdus luminescens); experiment: ADP-ribosylation of actin by TcART in presence of actin-binding peptides; assay type: biochemical, rabbit skeletal muscle α-actin; details: for ADP-ribosylation level: relative to no peptide = 1, […] actin, 314 pM TcART, 10 min 37°C; for effect on TcART modification of F-actin (in words): peptides up to 100 µM
Procedure: (§1) Rabbit skeletal muscle α-actin was purified from muscle acetone powder (Pel-Freez Biologicals) as described in [Merino et al. (2018)] and stored in 50 μl aliquots at −70°C.
TcART, the ADP-ribosyltransferase from P. luminescens Tc toxin, was purified from E. coli BL21-CodonPlus(DE3)-RIPL harboring the plasmid pB656 as described previously ([Belyy et al., 2022]).
A total of 8-μl mixtures of 2 μg (4.8 μM final concentration) actin and actin-binding peptides at specified concentrations were preincubated for 5 min at room temperature in the buffer containing 1 mM NAD, 20 mM Tris pH 8, 150 mM NaCl, and 1 mM MgCl2. The ADP ribosylation reaction was initiated by the addition of 0.2 ng (314 pM) of TcART to the mixture. After 10 min of incubation at 37°C, the reaction was stopped by adding Laemmli sample buffer and heating the sample at 95°C for 5 min. The components of the mixture were separated by SDS-PAGE, blotted onto a polyvinylidene difluoride (PVDF) membrane using a Trans-Blot Turbo Transfer System (Bio-Rad), and visualized using a combination of the His-tagged ADP-ribose binding protein at the concentration of 0.01 mg/ml and HisProbe-HRP conjugate. The level of actin ADP-ribosylation was quantified by densitometry using ImageJ.

[2] = target: F-actin; experiment: High-speed cosedimentation with F-actin (120,000 g), SDS-PAGE densitometry; assay type: binding, rabbit skeletal muscle α-actin; details: for Fraction bound: 2 μM mCherry fusion
Procedure: as §1
A single colony was inoculated into 200 ml of LB media and grown at 37°C. At OD600 0.6–1.0, protein expression was induced by the addition of IPTG to a final concentration of 0.02 mM. After 16 h of expression at 22°C, the cells were harvested by centrifugation, resuspended in TBS (20 mM Tris pH 8 and 150 mM NaCl), and lysed by sonication. The soluble fraction was applied on TBS-equilibrated Protino Ni-IDA resin (Macherey-Nagel), washed, eluted with TBS supplemented with 250 mM imidazole, dialyzed against TBS, and stored at −20°C.
Freshly thawed mammalian α-actin was spun down at 120,000 g for 20 min at 4°C using a TLA-120.1 rotor, and the supernatant containing G-actin was collected. The protein was then polymerized by incubation in F buffer (120 mM KCl, 20 mM Tris pH 8, 2 mM MgCl2, 1 mM DTT, and 1 mM ATP) for 2 h on ice. Cosedimentation assays were performed in 20 μl volumes by first incubating F-actin with F-tractinopt-mCherry fusions for 5 min at room temperature and then centrifuging at 120,000 g using the TLA-120.1 rotor for 20 min at 4°C. After centrifugation, aliquots of the supernatant and resuspended pellet fractions were separated on SDS-polyacrylamide gels with 2,2,2-trichloroethanol ([Ladner-Keay et al., 2018]), visualized under ultraviolet light, and analyzed by densitometry using ImageJ (RRID:SCR_003070). The Kd values were calculated using GraphPad Prism software (RRID:SCR_002798).

[3] = test system: U-2 OS cells (phalloidin-stained actin); experiment: Colocalization with phalloidin in U-2 OS cells (Pearson correlation); assay type: cell-based, human; details: EGFP fusions
[4] = test system: U-2 OS cells; experiment: Nuclear signal enrichment in U-2 OS cells; assay type: cell-based, human; details: EGFP fusions
[5] = test system: U-2 OS cells (actin fibers); experiment: Signal-to-noise ratio (fibers/cytosol) in U-2 OS cells; assay type: cell-based, human; details: EGFP fusions, compared with WT F-tractin
[6] = test system: U-2 OS cells; experiment: FRAP recovery half time in U-2 OS cells; assay type: cell-based, human; details: EGFP fusions
[7] = test system: F-actin; experiment: Actin bundling assay using low-speed centrifugation (10,000 g); assay type: biochemical, rabbit skeletal muscle α-actin; details: for F-actin in the pellet: 10 μM actin filaments, 5 min RT, 10,000 g
Procedure: as §1
8 μl of actin filaments at 10 μM were mixed with peptides at the specified concentration, incubated for 5 min at room temperature, and spun down at 10,000 g for 10 min at 4°C. Aliquots of the supernatant and resuspended pellet fractions were separated on SDS-polyacrylamide gels with 2,2,2-trichloroethanol ([Ladner-Keay et al., 2018]) and visualized with ultraviolet light.

Sequence: APRRSVGELRLLAEARAASAA [F29A F-tractinopt, mCherry fusion in cosedimentation, EGFP fusion in cells]
- ADP-ribosylation level ([1]; peptide 100 µM, Repeat 1): 0,715886
- ADP-ribosylation level ([1]; peptide 100 µM, Repeat 2): 1,144903
- ADP-ribosylation level ([1]; peptide 100 µM, Repeat 3): 1,162086
- effect on TcART modification of F-actin (in words) [1]: did not interfere with TcART modification of F-actin
- Kd ([2]; 2 μM probe as mCherry fusion, F-actin titrated, 5 min at room temperature, three independent experiments): > 100 µM
- Fraction bound ([2]; F-actin 2 µM, Repeat 1): 0,02963
- Fraction bound ([2]; F-actin 2 µM, Repeat 2): 0,031317
- Fraction bound ([2]; F-actin 2 µM, Repeat 3): 0,036
- Fraction bound ([2]; F-actin 5 µM, Repeat 1): 0,020561
- Fraction bound ([2]; F-actin 5 µM, Repeat 2): 0,008869
- Fraction bound ([2]; F-actin 5 µM, Repeat 3): 0,001393
- Fraction bound ([2]; F-actin 10 µM, Repeat 1): 0,051546
- Fraction bound ([2]; F-actin 10 µM, Repeat 2): 0,016783
- Fraction bound ([2]; F-actin 10 µM, Repeat 3): 0,023887
- Fraction bound ([2]; F-actin 20 µM, Repeat 1): 0,035971
- Fraction bound ([2]; F-actin 20 µM, Repeat 2): 0,051087
- Fraction bound ([2]; F-actin 20 µM, Repeat 3): 0,050633
- Fraction bound ([2]; F-actin 40 µM, Repeat 1): 0,071269
- Fraction bound ([2]; F-actin 40 µM, Repeat 2): 0,046373
- Fraction bound ([2]; F-actin 40 µM, Repeat 3): 0,065217
- affinity for F-actin (in words) ([2]; cosedimentation, mCherry fusions of F-tractinopt variants): barely detectable in the pellet at the highest concentration of F-actin used
- binding to actin in cells (in words) [3]: completely failed to bind to actin in cells

Sequence: APRRSVGELRLLFEARAASAA [F-tractinopt, optimized F-tractin peptide; mCherry fusion in cosedimentation, EGFP fusion in cells]
- nuclear enrichment (in words) [4]: slightly higher accumulation of F-tractinopt in the nucleus
- ADP-ribosylation level ([1]; peptide 1 µM, Repeat 1): 1,245716
- ADP-ribosylation level ([1]; peptide 1 µM, Repeat 2): 0,95033
- ADP-ribosylation level ([1]; peptide 1 µM, Repeat 3): 1,419998
- ADP-ribosylation level ([1]; peptide 3 µM, Repeat 1): 1,210256
- ADP-ribosylation level ([1]; peptide 3 µM, Repeat 2): 1,296322
- ADP-ribosylation level ([1]; peptide 3 µM, Repeat 3): 1,29383
- ADP-ribosylation level ([1]; peptide 10 µM, Repeat 1): 0,846657
- ADP-ribosylation level ([1]; peptide 10 µM, Repeat 2): 0,728925
- ADP-ribosylation level ([1]; peptide 10 µM, Repeat 3): 1,078508
- ADP-ribosylation level ([1]; peptide 30 µM, Repeat 1): 0,320904
- ADP-ribosylation level ([1]; peptide 30 µM, Repeat 2): 0,220558
- ADP-ribosylation level ([1]; peptide 30 µM, Repeat 3): 0,140877
- ADP-ribosylation level ([1]; peptide 100 µM, Repeat 1): 0,032604
- ADP-ribosylation level ([1]; peptide 100 µM, Repeat 2): 0,100767
- ADP-ribosylation level ([1]; peptide 100 µM, Repeat 3): 0,002262
- effect on TcART modification of F-actin (in words) [1]: inhibited TcART activity in a similar dose-dependent manner
- signal-to-noise ratio between actin fibers and cytosol (in words) [5]: behave very similarly (no
- Fraction bound ([2]; F-actin 2 µM, Repeat 1): 0,113982
- Fraction bound ([2]; F-actin 2 µM, Repeat 2): 0,125633
- Fraction bound ([2]; F-actin 2 µM, Repeat 3): 0,150215
- Fraction bound ([2]; F-actin 5 µM, Repeat 1): 0,211009
- Fraction bound ([2]; F-actin 5 µM, Repeat 2): 0,27957
- Fraction bound ([2]; F-actin 5 µM, Repeat 3): 0,318841
- Fraction bound ([2]; F-actin 10 µM, Repeat 1): 0,480176
- Fraction bound ([2]; F-actin 10 µM, Repeat 2): 0,433657
- Fraction bound ([2]; F-actin 10 µM, Repeat 3): 0,418605
- Fraction bound ([2]; F-actin 20 µM, Repeat 1): 0,569748
- Fraction bound ([2]; F-actin 20 µM, Repeat 2): 0,578018
- Fraction bound ([2]; F-actin 20 µM, Repeat 3): 0,523474
- Fraction bound ([2]; F-actin 40 µM, Repeat 1): 0,557282
- Fraction bound ([2]; F-actin 40 µM, Repeat 2): 0,621935
- Fraction bound ([2]; F-actin 40 µM, Repeat 3): 0,643478
- exchange / recovery in FRAP (in words) [6]: exchanged faster than WT F-tractin; also recorded: FRAP recovery rates
- actin bundling (in words) ([7]; in vitro, up to 100 µM, low-speed centrifugation and cryo-EM): minimal actin bundling
- F-actin in the pellet ([7]; peptide 1 µM, Repeat 1): 0,098435
- F-actin in the pellet ([7]; peptide 1 µM, Repeat 2): 0,057915
- F-actin in the pellet ([7]; peptide 1 µM, Repeat 3): 0,103265
- F-actin in the pellet ([7]; peptide 100 µM, Repeat 1): 0,099007
- F-actin in the pellet ([7]; peptide 100 µM, Repeat 2): 0,095989
- F-actin in the pellet ([7]; peptide 100 µM, Repeat 3): 0,158954
- F-actin in the pellet ([7]; peptide 1000 µM, Repeat 1): 0,238373
- F-actin in the pellet ([7]; peptide 1000 µM, Repeat 2): 0,117922
- F-actin in the pellet ([7]; peptide 1000 µM, Repeat 3): 0,212762
